Where “and” joins values, the source holds several entries; their conditions need not be identical. Equal entries are not always repeated.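 Interpolation was linear, between the two tested concentrations surrounding the appropriate level; five concentrations were tested over 48 hours in 96-well plates. Here, GI50 denotes the concentration required for 50% inhibition of growth. The concentration for full growth arrest is given as TGI.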
Columns and labels:
Assay in all cases: NCI-60 cell line screen, 48 h
NCI-H522 lung = test system: NCI-H522 lung
MOLT-4 leukemia = test system: MOLT-4 leukemia
SNB-19 CNS = test system: SNB-19 CNS
UACC-62 melanoma = test system: UACC-62 melanoma
HCT-15 colon = test system: HCT-15 colon
SR leukemia = test system: SR leukemia
COLO 205 colon = test system: COLO 205 colon
UACC-257 melanoma = test system: UACC-257 melanoma
OVCAR-5 ovarian = test system: OVCAR-5 ovarian
HS 578T breast = test system: HS 578T breast

| Compound | GI50 (NCI-H522 lung) | TGI (NCI-H522 lung) | GI50 (MOLT-4 leukemia) | TGI (MOLT-4 leukemia) | GI50 (SNB-19 CNS) | TGI (SNB-19 CNS) | GI50 (UACC-62 melanoma) | TGI (UACC-62 melanoma) | GI50 (HCT-15 colon) | TGI (HCT-15 colon) | GI50 (SR leukemia) | GI50 (COLO 205 colon) | TGI (COLO 205 colon) | GI50 (UACC-257 melanoma) | TGI (UACC-257 melanoma) | GI50 (OVCAR-5 ovarian) | TGI (OVCAR-5 ovarian) | GI50 (HS 578T breast) | TGI (HS 578T breast) | TGI (SR leukemia) |
| --- | --- | --- | --- | --- | --- | --- | --- | --- | --- | --- | --- | --- | --- | --- | --- | --- | --- | --- | --- | --- |
| COc1cc2c(/C=C3/C(=O)Nc4ccc(O)cc43)c(Cl)n(Cc3cc(OC)c(OC)c(OC)c3)c2cc1C | 0.633 µM | 4.45 µM | 2.34 µM | > 21.9 µM | 3.32 µM | > 100 µM | 1.58 µM | 8.56 µM | 1.81 µM | > 34.1 µM | 0.329 µM | 2.61 µM | > 100 µM | 3.43 µM | > 47.6 µM | 15.6 µM | > 100 µM | 2.37 µM | > 30.5 µM |  |
| Cc1c[nH]c(=O)n(Cc2nnc(CCC(=O)c3nc4ccccc4[nH]3)o2)c1=O | 0.281 µM | 1.4 µM | 1.69 µM | > 100 µM | 1.27 µM | > 100 µM | 0.721 µM | > 88.1 µM | 8.93 µM | > 100 µM | 0.447 µM | 0.299 µM | 1.04 µM | 0.787 µM | > 100 µM | 0.879 µM | > 100 µM | 0.285 µM | 2.3 µM | > 100 µM |
| OCCN(CCO)c1nc(N2CCCCC2)c2nc(N(CCO)CCO)nc(N3CCCCC3)c2n1 |  | 39.6 µM |  | 56.5 µM |  |  |  |  |  | > 100 µM |  |  | > 100 µM |  | > 100 µM |  | > 100 µM |  | 79.6 µM | 22.2 µM |
| O=c1oc2ccc(Cl)cc2c(=O)n1-c1ccc(F)cc1F | 1.4 µM | 10.3 µM | 2.33 µM | 5.59 µM | 2.27 µM | > 100 µM | 0.608 µM | 3.84 µM | 2.32 µM | 13.5 µM | 1.04 µM | 7.92 µM | 23.9 µM | 0.45 µM | 4.08 µM | 3.43 µM | 97.5 µM | 1.55 µM | 7.66 µM | 9.75 µM |
| O=[N+]([O-])c1ccc(N=Nc2c(Cl)cc(O)cc2Cl)cc1 | 0.473 µM | 4.09 µM | 0.435 µM | 2.99 µM | 1.94 µM | 15.7 µM | 1.39 µM | 3.59 µM | 2.02 µM | 10.3 µM | 0.421 µM | 1.82 µM | 4.17 µM | 1.65 µM | 4.49 µM | 4.22 µM | 16.5 µM | 1.11 µM | 9.06 µM | 6.09 µM |
| CCOC(=O)c1c2c(n3ccc(NC(=O)CCN4CCCCC4)cc13)C(=O)c1ncccc1C2=O | 0.0158 µM | 1.72 µM | 1.42 µM | 4.04 µM | 1.06 µM | 3.21 µM | 0.281 µM | 2.65 µM | 1.13 µM | 2.86 µM | < 0.01 µM | 1.18 µM | 2.75 µM | 2.45 µM | 7.99 µM | 1.38 µM | 3.2 µM | 0.351 µM | 6.57 µM | 1.2 µM |
| O=C1c2ccccc2C(=O)c2c1oc1c2c(=O)[nH]c2ccc(Cl)cc21 | 0.318 µM | 1.4 µM | 0.435 µM | 3.14 µM | 0.312 µM | 1.1 µM | 0.285 µM | 1.15 µM | 0.208 µM | 0.512 µM | 0.496 µM | 10.5 µM | 27.6 µM | 1.33 µM | 3.36 µM | 3.44 µM | 14.7 µM | 0.264 µM | 1.37 µM | 3.94 µM |
| CN(/N=C/c1ccccc1O)c1ccc2ccccc2n1 |  | 80.9 µM |  | 62.6 µM |  | 30.3 µM |  | > 100 µM |  | > 100 µM |  |  | > 100 µM |  | > 100 µM |  | > 100 µM |  | 72.8 µM | 36.8 µM |
| O=C1/C(=C/c2ccc(F)cc2)CN(C(=O)C(Cl)Cl)C/C1=C\c1ccc(F)cc1 | 1.5 µM | 3.27 µM | 0.309 µM | > 100 µM | 0.287 µM | 1.25 µM | 0.237 µM | 0.641 µM | 0.145 µM | 0.682 µM | 0.0386 µM | 0.353 µM | 1.42 µM | 0.45 µM | 1.62 µM | 0.323 µM | 1.1 µM | 0.325 µM | 1.37 µM | > 100 µM |
| O=C(Nc1cn[nH]c1-c1nc2ccc(CN3CCOCC3)cc2[nH]1)NC1CC1 | 0.563 µM and 1.18 µM | 3.43 µM and > 10 µM | 1.87 µM and 2.52 µM | 5.4 µM and > 10 µM | 1.16 µM and 2.62 µM | 11.3 µM and > 10 µM | 1.37 µM and 3.81 µM | 3.5 µM and > 10 µM | 4.52 µM and > 10 µM | 25.6 µM and > 10 µM | 0.0277 µM and 0.0539 µM | 0.0376 µM and 0.0752 µM | 1.75 µM and 3.81 µM | 1.72 µM and > 10 µM | 7.76 µM and > 10 µM | 2.78 µM and 6.68 µM | 9.49 µM and > 10 µM | 0.118 µM and 0.125 µM | 0.717 µM and 0.681 µM | 4.15 µM and 5.52 µM |
| C#Cc1cccc(NC(=O)c2cccc(NC(=O)CCl)c2)c1 | 12.7 µM | 33.4 µM | 6.71 µM | 61.2 µM | 31.1 µM | > 82.5 µM | 26.9 µM | > 82.5 µM | 5.2 µM | 19.1 µM | 4.79 µM | 22 µM | > 82.5 µM | 54.7 µM | > 82.5 µM | 15.8 µM | 40.8 µM | 17.4 µM | 76.2 µM | 43.1 µM |
| O=C(O)CN1C(=O)CN=C(c2ccccn2)c2cc(Cl)ccc21 |  | > 100 µM |  | 21.7 µM |  | > 100 µM |  | > 100 µM |  | > 100 µM |  |  | > 100 µM |  | > 100 µM |  | > 100 µM |  | > 100 µM | > 100 µM |
| S=C1SCN(Cc2ccccc2)CN1Cc1ccccc1 | 3.83 µM | 10 µM | 1.44 µM | 5.14 µM | > 54.7 µM | > 100 µM | 5.05 µM | 16.9 µM | 4.13 µM | 17.1 µM | 0.303 µM | 3.21 µM | 11.6 µM | 16 µM | 33.2 µM | 25.7 µM | > 60.5 µM | 3.02 µM | 25.6 µM | 3.02 µM |

From PubChem BioAssay (NCI)
